The record followed here is ChEMBL document CHEMBL4145579, “Plasmodial Kinase Inhibitors: License to Cure?” (J Med Chem, 2018).

Experiment [1] in a line: Inhibition of recombinant Plasmodium vivax PI4K.
In experiment [2] the test system is Plasmodium berghei. As to the kind of experiment: Antiplasmodial activity Plasmodium berghei infected in po dosed mouse. Type of experiment: functional.
Experiment [3] concerns Plasmodium falciparum. As to the kind of experiment: Antiplasmodial activity drug-sensitive Plasmodium falciparum 3D7 infected in po dosed humanized SCID mouse assessed as decrease in blood parasitemia administered once daily for 4 days measure on day 7 by flow cytometric method. The experiment is classed as functional.
Experiment [4] concerns the target Fibroblast growth factor receptor 1 (Homo sapiens) (UniProt P11362). As to the kind of experiment: Inhibition of recombinant human N-terminal GST-tagged FGFR1 (456 to 765 residues) expressed in Escherichia coli at 10 uM.
Experiment [5] deals with Mitogen-activated protein kinase 14 (Homo sapiens) (UniProt Q16539). As to the kind of experiment: Inhibition of recombinant human N-terminal GST-tagged full length SAPK2alpha expressed in Escherichia coli at 10 uM.
Experiment [6] deals with T1, Calcium-dependent protein kinase 1 (Plasmodium falciparum, UniProt P62344). As to the kind of experiment: Inhibition of Plasmodium falciparum recombinant His-tagged CDPK1 expressed in Escherichia coli BL21(DE3) after 1 hr in presence of [gamma33P]ATP by scintillation proximity assay.
Experiment [7] concerns Plasmodium falciparum. As to the kind of experiment: Antiplasmodial activity against Plasmodium falciparum NF54. Type of experiment: functional, organism-based.
Experiment [8] in a line: Inhibition of Plasmodium falciparum 3D7 6xHis-tagged PI3K helica domain expressed in Escherichia coli by Western blot analysis.
Experiment [9] concerns Plasmodium falciparum. As to the kind of experiment: Antiplasmodial activity against mature gametocytes of Plasmodium falciparum NF54 […] by standard membrane feeding assay. The experiment is classed as functional, organism-based.
Experiment [10] in a line: Inhibition of Plasmodium falciparum PKG.
Experiment [11] relates to Plasmodium falciparum. As to the kind of experiment: Antiplasmodial activity against Plasmodium falciparum infected in CD1 mouse at 100 mg/kg, po bid for 4 days. The experiment is classed as functional.
Experiment [12] has as its system Plasmodium falciparum. As to the kind of experiment: Antiplasmodial activity against mature gametocytes of Plasmodium falciparum 3D7 […]. The experiment is classed as functional, organism-based.
Experiment [13] relates to Plasmodium falciparum. As to the kind of experiment: Inhibition of Plasmodium falciparum NF54 exflagellation measured on day 15 post parasite growth. As to conditions: NF54, 360 h. The experiment is classed as functional, organism-based.
Experiment [14] relates to Plasmodium falciparum. As to the kind of experiment: Antiplasmodial activity against chloroquine-sensitive Plasmodium falciparum Dd2 gametocyte form infected in human erythrocytes by scintillation counting-based [3H]-hypoxanthine incorporation assay. The experiment is classed as functional, organism-based.
For experiment [15], the system named is Plasmodium falciparum. As to the kind of experiment: Antiplasmodial activity against Plasmodium falciparum NF54 gametocyte form infected in human erythrocytes by scintillation counting-based [3H]-hypoxanthine incorporation assay. Type of experiment: functional, organism-based.
Experiment [16] is described as follows: Inhibition of Plasmodium falciparum recombinant expressed in Toxoplasma gondii after 60 mins in presence of [33P]ATP by scintillation counting.
Experiment [17] deals with T1, Calcium-dependent protein kinase 1. As to the kind of experiment: Inhibition of Plasmodium falciparum recombinant CDPK1 expressed in Escherichia coli expression system after 1 hr in presence of [gamma33P]ATP by scintillation proximity assay.
For experiment [18], the target named is Cyclin-dependent kinase 5/CDK5 activator 1 (Homo sapiens) (UniProt Q00535+Q15078). As to the kind of experiment: Inhibition of recombinant human N-terminal His6-tagged full length CDK5/recombinant human N-terminal GST-tagged full length p25 at 10 uM. Type of experiment: protein-complex assay.
For experiment [19], the system named is Plasmodium berghei. As to the kind of experiment: Antiplasmodial activity Plasmodium berghei infected in ip dosed mouse. The experiment is classed as functional.
The test system of experiment [20] is Plasmodium falciparum. As to the kind of experiment: Antiplasmodial activity against Plasmodium falciparum FCB infected in human erythrocytes after 30 mins by FACS analysis. Type of experiment: functional, organism-based. The note with it: 0.5 h.
For experiment [21], the target named is T2, Calcium-dependent protein kinase 4 (Plasmodium falciparum (isolate 3D7), UniProt Q8IBS5).
T2 sequence (Q8IBS5 whole entry): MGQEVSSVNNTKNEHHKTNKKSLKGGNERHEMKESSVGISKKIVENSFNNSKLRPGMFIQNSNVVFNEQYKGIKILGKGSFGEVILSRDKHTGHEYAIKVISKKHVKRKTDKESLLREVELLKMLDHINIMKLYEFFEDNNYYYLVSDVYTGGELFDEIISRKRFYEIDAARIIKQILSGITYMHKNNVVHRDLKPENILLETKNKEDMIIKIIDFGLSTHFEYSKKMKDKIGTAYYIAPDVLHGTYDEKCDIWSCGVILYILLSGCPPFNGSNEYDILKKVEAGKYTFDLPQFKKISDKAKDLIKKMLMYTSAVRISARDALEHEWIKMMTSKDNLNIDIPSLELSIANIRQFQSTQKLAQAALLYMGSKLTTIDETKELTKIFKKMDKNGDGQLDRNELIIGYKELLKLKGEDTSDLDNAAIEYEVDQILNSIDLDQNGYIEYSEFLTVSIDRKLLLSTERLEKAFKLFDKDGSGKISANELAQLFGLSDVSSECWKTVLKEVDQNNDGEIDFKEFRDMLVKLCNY
As to the kind of experiment: Inhibition of Plasmodium falciparum His-tagged CDPK4 expressed in Escherichia coli BL21(DE3) using […] as substrate after 10 mins in presence of ATP.

Experiment [22] deals with Plasmodium falciparum. As to the kind of experiment: Antiplasmodial activity against chloroquine-sensitive Plasmodium falciparum D6 infected in human red blood cells preincubated for 24 hrs followed by [3H]-hypoxanthine addition measured after 18 hrs by scintillation counting. The experiment is classed as functional, organism-based.

Structures are written as SMILES. pEC50, pIC50, pKi: −log10 of the molar value.

T1 sequence (P62344 whole entry): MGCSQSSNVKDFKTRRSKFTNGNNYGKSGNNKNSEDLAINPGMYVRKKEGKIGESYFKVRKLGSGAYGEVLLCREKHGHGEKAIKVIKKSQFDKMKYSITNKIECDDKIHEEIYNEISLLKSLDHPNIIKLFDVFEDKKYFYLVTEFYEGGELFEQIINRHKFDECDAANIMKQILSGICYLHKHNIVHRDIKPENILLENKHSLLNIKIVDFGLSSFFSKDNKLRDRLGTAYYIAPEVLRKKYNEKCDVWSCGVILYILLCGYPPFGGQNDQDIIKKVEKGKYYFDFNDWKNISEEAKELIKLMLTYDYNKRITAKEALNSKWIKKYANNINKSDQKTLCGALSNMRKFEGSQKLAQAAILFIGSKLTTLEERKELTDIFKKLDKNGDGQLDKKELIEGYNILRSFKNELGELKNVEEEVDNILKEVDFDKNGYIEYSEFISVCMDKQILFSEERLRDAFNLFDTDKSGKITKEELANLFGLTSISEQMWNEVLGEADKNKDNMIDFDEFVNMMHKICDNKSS
Cyclin-dependent kinase 5/CDK5 activator 1 (Homo sapiens), sequence (Q00535 whole entry): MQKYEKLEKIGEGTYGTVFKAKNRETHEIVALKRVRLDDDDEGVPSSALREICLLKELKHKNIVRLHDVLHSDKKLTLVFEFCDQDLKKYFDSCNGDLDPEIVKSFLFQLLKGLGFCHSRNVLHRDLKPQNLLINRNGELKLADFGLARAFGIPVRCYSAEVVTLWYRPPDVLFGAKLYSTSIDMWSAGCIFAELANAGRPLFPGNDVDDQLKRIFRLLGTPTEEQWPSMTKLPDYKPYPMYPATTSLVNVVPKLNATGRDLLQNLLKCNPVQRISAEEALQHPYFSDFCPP
Cyclin-dependent kinase 5/CDK5 activator 1 (Homo sapiens), sequence (Q15078 99-307 partner limits assumed): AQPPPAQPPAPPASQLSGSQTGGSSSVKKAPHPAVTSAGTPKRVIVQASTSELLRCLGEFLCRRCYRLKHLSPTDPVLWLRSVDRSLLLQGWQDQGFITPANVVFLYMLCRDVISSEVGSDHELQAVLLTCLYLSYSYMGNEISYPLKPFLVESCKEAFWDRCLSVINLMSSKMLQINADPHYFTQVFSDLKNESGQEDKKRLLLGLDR
Fibroblast growth factor receptor 1 (Homo sapiens), sequence (P11362 22-822 limits assumed): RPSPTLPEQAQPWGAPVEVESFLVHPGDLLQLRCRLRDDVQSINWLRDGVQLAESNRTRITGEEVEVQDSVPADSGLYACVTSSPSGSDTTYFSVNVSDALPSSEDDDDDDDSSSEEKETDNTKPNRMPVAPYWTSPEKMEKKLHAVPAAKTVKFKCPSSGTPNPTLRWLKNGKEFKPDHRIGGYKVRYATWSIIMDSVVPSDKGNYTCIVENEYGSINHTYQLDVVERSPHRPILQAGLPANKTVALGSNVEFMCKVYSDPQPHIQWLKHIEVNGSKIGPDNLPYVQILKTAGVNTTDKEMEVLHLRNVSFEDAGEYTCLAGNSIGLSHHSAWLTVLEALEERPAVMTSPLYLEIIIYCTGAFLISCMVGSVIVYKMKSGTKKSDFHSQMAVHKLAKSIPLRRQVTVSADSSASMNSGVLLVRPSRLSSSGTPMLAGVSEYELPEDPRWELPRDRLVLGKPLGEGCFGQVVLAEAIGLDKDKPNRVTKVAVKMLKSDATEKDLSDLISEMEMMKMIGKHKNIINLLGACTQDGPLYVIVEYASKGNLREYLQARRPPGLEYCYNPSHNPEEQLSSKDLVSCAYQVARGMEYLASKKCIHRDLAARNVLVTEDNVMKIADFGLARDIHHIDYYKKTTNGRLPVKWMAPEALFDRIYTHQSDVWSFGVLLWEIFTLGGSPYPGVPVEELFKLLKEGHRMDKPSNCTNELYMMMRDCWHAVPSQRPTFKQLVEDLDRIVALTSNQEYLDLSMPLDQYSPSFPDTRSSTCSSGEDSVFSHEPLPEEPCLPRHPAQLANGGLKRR
Mitogen-activated protein kinase 14 (Homo sapiens), sequence (Q16539 whole entry): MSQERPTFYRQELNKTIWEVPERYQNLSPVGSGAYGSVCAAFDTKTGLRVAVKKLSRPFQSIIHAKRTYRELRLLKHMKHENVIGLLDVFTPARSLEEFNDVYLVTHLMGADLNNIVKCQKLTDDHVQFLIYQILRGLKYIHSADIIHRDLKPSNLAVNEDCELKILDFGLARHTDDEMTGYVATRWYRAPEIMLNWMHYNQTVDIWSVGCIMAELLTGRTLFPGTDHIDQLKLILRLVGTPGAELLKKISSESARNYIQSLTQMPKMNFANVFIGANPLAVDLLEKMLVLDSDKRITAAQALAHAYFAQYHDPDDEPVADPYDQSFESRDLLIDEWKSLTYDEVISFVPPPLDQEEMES

Consider `CS(=O)(=O)c1ccc(-c2cnc(N)c(-c3ccc(C(F)(F)F)nc3)c2)cc1` [MMV-048], for which the pIC50 in [1] was 8.47. Besides, the results for the ED90 with Plasmodium berghei [2] and in the experiment with Plasmodium falciparum [3] were 0.8 mg/kg and 0.57 mg/kg, respectively.
For the compound `Cc1ccc(C(=O)c2c(N)c(C(N)=O)c3ccccn23)cc1`, the values for the inhibition in experiment [4] and in [5] were 54% and 75%, respectively. Further, the pKi in experiment [6] is 6.58.
On to `O=c1cc(N2CCOCC2)oc2c(-c3ccccc3)cccc12` [LY-294002], for which the negative logarithm of the IC50 (pIC50) with Plasmodium falciparum [7] was 5.52; in experiment [8], 4.60.
For `Cc1cn2c(-c3ccnc(NCC4CC4)n3)c(-c3ccc(F)c(NS(C)(=O)=O)c3)nc2cc1CN(C)C`, the results for the pIC50 (with Plasmodium falciparum [9]; in [10]; in the experiment on Plasmodium falciparum [12]) were 7.39, 9.80 and 8.68, respectively. Also, the Activity in the experiment on Plasmodium falciparum [11] is listed as 99.9%.
Turning to `CCOc1ccc2cc(-c3nn(CC4CCNCC4)c4ncnc(N)c34)ccc2c1`, the pEC50 in the experiment with Plasmodium falciparum [13] was 7.46; in the experiment on Plasmodium falciparum [7] it was 5.70.
With `CN1CCC(c2cc(-c3ccncc3)c(-c3ccc(F)cc3)[nH]2)CC1`, the pIC50 was 5.89 with Plasmodium falciparum [14], 6.31 in the experiment on Plasmodium falciparum [15], 8.46 in [16] and 6.31 in the experiment with Plasmodium falciparum [12].
For the compound `N[C@H]1CC[C@H](Nc2nc(Nc3ccc(C(=O)N4CCCCC4)cc3)c3ncn(-c4cccc(F)c4)c3n2)CC1` [PURFALCAMINE], the pIC50 in [17] was 7.77 to 7.89.
As to `CCOc1ccc2cc(-c3nn(CC4CCN(C)CC4)c4ncnc(N)c34)ccc2c1`, the values for the pEC50 with Plasmodium falciparum [13] and in the experiment on Plasmodium falciparum [7] were 7.33 and 5.10, respectively.
Take `CCCNc1ccc2ncc(-c3cccc(O)c3)n2n1`: the inhibition in [18] worked out at 89%. Also, in experiment [6], the pKi is 7.43.
Consider `C[C@H]1[C@@H](O)O[C@@H]2O[C@@]3(C)CC[C@H]4[C@H](C)CC[C@@H]1[C@@]24OO3` [ARTENIMOL], for which the pIC50 in the experiment with Plasmodium falciparum [7] is 8.52; in experiment [8], 8.39. Moreover, the ED50 in the experiment with Plasmodium berghei [19] amounted to 1.95 mg/kg.
As to `CN(C)Cc1ccn2c(-c3ccnc(NCC4CC4)n3)c(-c3cccc(S(C)(=O)=O)c3)nc2c1`, the pIC50 was 9.89 in experiment [10] and 6.99 in the experiment on Plasmodium falciparum [12].
For the compound `CN1CCN(CCCN2c3ccccc3Sc3ccc(C(F)(F)F)cc32)CC1` [TRIFLUOPERAZINE], the pEC50 in the experiment on Plasmodium falciparum [20] was 5.72. The pKi in [21] is 3.82.
For `COc1cc(-c2cc(-c3ccc(S(C)(=O)=O)cc3)cnc2N)ccc1O`, the pIC50 in experiment [1] is 8.00. In the experiment on Plasmodium berghei [2], this compound returned an ED90 of 43.7 mg/kg.
Consider `O=C1Nc2ccc(Br)cc2/C1=C\C(=O)c1ccc(F)cc1`, for which, in the experiment with Plasmodium falciparum [22], the pIC50 was < 4.85.
